According to PMC12115147, “Identification of 3-[(4-Acetylphenyl)(4-Phenylthiazol-2-Yl)Amino]Propanoic Acid Derivatives as Promising Scaffolds for the Development of Novel Anticancer Candidates Targeting SIRT2 and EGFR” (Pharmaceuticals, 2025):
Like-named read-outs stand apart in the source and are kept apart here. Each block holds one molecule with its values, some of them ahead of it.

Tests used:
[1] = system: A549 human lung adenocarcinoma cells; conditions: for A549 cell viability: 100 µM
Experimental: (§2) The dissolved compounds were then manually dispensed into deep 96-well plates, sealed, and stored at −80 °C until the day of the experiment. For the in vitro antiproliferative activity screening, the compounds were thawed at room temperature, protected from light, and the aliquots were diluted in complete cell culture media to achieve a final concentration of 100 µM and used for the in vitro assays.
(§3) All cells were cultivated in Dulbecco’s Modified Eagle Medium/Nutrient Mixture F-12 (DMEM/F-12) (Gibco, Waltham, MA, USA), 10% fetal bovine serum (FBS) (Gibco, Waltham, MA, USA), 100 U/mL penicillin, and 100 μg/mL streptomycin (P/S) (Gibco, Waltham, MA, USA). Culturing conditions were maintained at 37 °C with a humidified atmosphere containing 5% CO2. The culture medium was refreshed every 2–3 days, and cells were passaged upon reaching 70–80% confluence.
(§4) The in vitro inhibitory effects of the compounds were assessed using the MTT assay [40, 41, 42, 43, 44]. Briefly, cells were plated in 96-well plates at a density of 1 × 10^4 cells per well. After allowing the cells to adhere overnight at 37 °C in 5% CO2, they were treated with compounds at concentration of 100 µM in triplicate. Following a 20 h incubation, MTT reagent was added, and the cells were further incubated for 4 h. The resulting formazan was solubilized in anhydrous DMSO, and absorbance was measured at 570 nm using a microplate reader. Cell viability was calculated using the following formula: ([AE − AB]/[AC − AB]) × 100%, where AE, AC, and AB represent the absorbance values of experimental samples, untreated controls, and blank wells, respectively. Data analysis was performed using GraphPad Prism or QuickCalcs (2.0 version).
(§5) The IC50 values, defined as the concentration of compound required to reduce cell viability by 50%, were determined using a dose–response curve. The data were fitted to a nonlinear regression model (GraphPad Prism version 9.0, GraphPad Software, San Diego, CA, USA) to calculate the IC50 values for each compound tested in triplicate.

[2] = system: HEK293 human embryonic kidney cells; assay: MTT cytotoxicity in non-cancerous HEK293 cells; type: cell-based; conditions: 24 h
Experimental: as §3, §4, §5

[3] = system: A549 human lung adenocarcinoma cells; assay: cells; conditions: A549, 24 h; for viability at 100 µM: read-out: A549 cell viability
Experimental: as §2, §3, §4, §5

[4] = system: H69 human lung carcinoma cells; assay: MTT cell viability assay in H69 cells; type: cell-based; conditions: NCI-H69, 24 h, normalized to untreated control
[5] = system: H69AR cells; assay: MTT cell viability assay in anthracycline-resistant H69AR cells; type: cell-based; conditions: Homo sapiens, 24 h, normalized to untreated control
[6] = system: A549 agarose-based spheroids; assay: LDH release cytotoxicity assay in A549 3D spheroids; type: cell-based, human; conditions: 100 µM, 24 h
Experimental: (§1) A549 tumor spheroids were generated using an agarose-based technique with modifications. A549 cells were plated at a density of 2.5 × 10^5 cells/well in 96-well plates pre-coated with 50 µL of 1% agarose in Dulbecco’s Phosphate-Buffered Saline (DPBS). The plates were incubated for 48 h to allow spheroid formation. After 48 h, the spheroids were treated with 100 µM of compounds dissolved in DMEM/F12 supplemented with 10% FBS and 0.25% DMSO for 24 h.
A549 tumor spheroids were generated in 96-well plates pre-coated with 50 µL of 1% agarose in Dulbecco’s Phosphate-Buffered Saline (DPBS), as described previously. After 48 h of spheroid formation, the spheroids were treated with compounds dissolved in DMEM/F12 supplemented with 10% FBS and 0.25% DMSO. After a 24 h incubation, spheroid-conditioned media were collected by centrifuging the plates at 1000× g for 2 min to remove the spheroids. Then, 50 µL of the supernatant was transferred to a new 96-well plate and mixed with LDH assay reagent (Pierce LDH Cytotoxicity Assay Kit, Thermo Fisher Scientific, Waltham, MA, USA) according to the manufacturer’s instructions. A commercial maximum LDH control was used to normalize the results. The percentage of LDH release was calculated based on the absorbance readings, using the formula: (sample absorbance − blank absorbance)/(maximum control absorbance − blank absorbance) × 100%.

[7] = system: A549 agarose-based spheroids; assay: AO/PI staining of A549 spheroids; type: cell-based, human; conditions: 100 µM, 24 h
Experimental: as §1
After treatment with compounds, spheroids were incubated with 5 µg/mL acridine orange and 5 µg/mL propidium iodide for 30 min at 37 °C in a humidified incubator. Following incubation, the spheroids were washed twice with DPBS to remove excess stain. The stained spheroids were then visualized using the EVOS cell imaging system (Thermo Fisher Scientific, Waltham, MA, USA). The fluorescent images were captured, and the viability of the spheroids was assessed based on the differential staining patterns, with live cells showing green fluorescence (acridine orange) and dead cells displaying red fluorescence (propidium iodide).

Molecule: 3,3′-{[(Phenylmethylene)bis(4-phenylthiazole-2,5-diyl)]bis[(4-acetylphenyl)azanediyl]}dipropionic acid [Compound 13]
A549 cell viability [1]: 57.6%

Molecule: N.N.[Cl][Pt][Cl] [CP, cisplatin, reference compound]
IC50 [2]: 5.57 µM
IC50 ([1]; A549 cells, 24 h, MTT): 11.7 µM

Molecule: CC(=O)c1ccc(N(CCC(=O)O)c2nc(-c3ccccc3)c(C(c3ccc(F)cc3)c3sc(N(CCC(=O)O)c4ccc(C(C)=O)cc4)nc3-c3ccccc3)s2)cc1 [Compound 14, 3,3′-/{[(4-Fluorophenyl)methylene]bis(4-phenylthiazole-5,2-diyl)}bis[(4 acetylphenyl)azanediyl]/dipropionic acid]
viability at 100 µM [3]: 47.8%

IC50 [3]: 5.42 µM
Molecule: C/C(=N/O)c1ccc(N(CCC(=O)O)c2nc(-c3ccccc3)cs2)cc1 [Compound 21, 3-/{4-[1-(Hydroxyimino)ethyl]phenyl}(4-phenylthiazol-2-yl)amino/propanoic acid]
viability at 100 µM [4]: 18.3%
viability at 100 µM [5]: 23.5%
IC50 ([2]; Homo sapiens): 14.6 µM
LDH release (cytotoxicity) [6]: 66.7%
spheroid morphology and cell viability by AO/PI staining [7]: partial cell death
viability at 100 µM [3]: 35.3%

IC50 [3]: 2.47 µM
Molecule: C/C(=N/O)c1ccc(N(CCC(=O)O)c2nc(-c3ccc(Cl)cc3)cs2)cc1 [Compound 22, 3-/[4-(4-Chlorophenyl)thiazol-2-yl]{4-[1-(hydroxyimino)ethyl]phenyl}amino/propanoic acid]
viability at 100 µM [4]: 33.9%
viability at 100 µM [5]: 26.6%
IC50 ([2]; Homo sapiens): 38 µM
LDH release (cytotoxicity) [6]: 40.6%
spheroid morphology and cell viability by AO/PI staining [7]: partial cell death
viability at 100 µM [3]: 37.6%

Molecule: COC(=O)CCN(c1ccc(/C(C)=N\O)cc1)c1nc(-c2ccccc2)cs1 [Compound 23, Methyl 3-/{4-[1-(hydroxyimino)ethyl]phenyl}(4-phenylthiazol-2-yl)amino/propanoate]
viability at 100 µM [3]: 41.9%

Molecule: COC(=O)CCN(c1ccc(/C(C)=N\O)cc1)c1nc(-c2ccc(Cl)cc2)cs1 [Compound 24, Methyl 3-/[4-(4-chlorophenyl)thiazol-2-yl]{4-[1-(hydroxyimino)ethyl]phenyl}amino/propanoate]
viability at 100 µM [3]: 77.7%

IC50 [3]: 8.05 µM
Molecule: C/C(=N/O)c1ccc(N(CCC(=O)NN)c2nc(-c3ccccc3)cs2)cc1 [Compound 25, 3-/{4-[1-(Hydroxyimino)ethyl]phenyl}(4-phenylthiazol-2-yl)amino/propanehydrazide]
viability at 100 µM [4]: 27.7%
viability at 100 µM [5]: 48.4%
IC50 ([2]; Homo sapiens): 10.7 µM
LDH release (cytotoxicity) [6]: 72.1%
spheroid morphology and cell viability by AO/PI staining [7]: substantial disruption of spheroid architecture and widespread PI-positive staining
viability at 100 µM [3]: 25%

IC50 [3]: 25.4 µM
Molecule: C/C(=N/O)c1ccc(N(CCC(=O)NN)c2nc(-c3ccc(Cl)cc3)cs2)cc1 [Compound 26, 3-/[4-(4-Chlorophenyl)thiazol-2-yl]{4-[1-(hydroxyimino)ethyl]phenyl}amino/propanehydrazide]
viability at 100 µM [4]: 67%
viability at 100 µM [5]: 15.4%
IC50 ([2]; Homo sapiens): 13.8 µM
LDH release (cytotoxicity) [6]: 89.9%
spheroid morphology and cell viability by AO/PI staining [7]: substantial disruption of spheroid architecture and widespread PI-positive staining
viability at 100 µM [3]: 30.5%

Molecule: CC(=NNc1ccccc1)c1ccc(N(CCC(=O)O)c2nc(-c3ccccc3)cs2)cc1 [Compound 27, 3-/{4-[1-(2-Phenylhydrazineylidene)ethyl]phenyl}(4-phenylthiazol-2-yl)amino/propanoic acid]
A549 cell viability [1]: 82.4–100%

Molecule: CC(=NNc1ccccc1)c1ccc(N(CCC(=O)O)c2nc(-c3ccc(Cl)cc3)cs2)cc1 [Compound 28, 3-/[4-(4-Chlorophenyl)thiazol-2-yl]{4-[1-(2-phenylhydrazineylidene)ethyl]phenyl}amino/propanoic acid]
A549 cell viability [1]: 82.4–100%

Molecule: COC(=O)CCN(c1ccc(C(C)=O)cc1)c1nc(-c2ccccc2)cs1 [Compound 29, Methyl 3-[(4-acetylphenyl)(4-phenylthiazol-2-yl)amino]propanoate]
viability at 100 µM [3]: 82.4 to 100%

Molecule: COC(=O)CCN(c1ccc(C(C)=O)cc1)c1nc(-c2ccc(Cl)cc2)cs1 [Compound 30, Methyl 3-{(4-acetylphenyl)[4-(4-chlorophenyl)thiazol-2-yl]amino}propanoate]
viability at 100 µM [3]: 82.4 to 100%

Molecule: CC(=NN)c1ccc(N(CCC(=O)NN)c2nc(-c3ccccc3)cs2)cc1 [Compound 31, 3-{[4-(1-Hydrazineylideneethyl)phenyl](4-phenylthiazol-2-yl)amino}propanehydrazide]
viability at 100 µM [3]: 67.1%

Molecule: CC(=NN)c1ccc(N(CCC(=O)NN)c2nc(-c3ccc(Cl)cc3)cs2)cc1 [Compound 32, 3-{[4-(4-Chlorophenyl)thiazol-2-yl][4-(1-hydrazineylideneethyl)phenyl]amino}propanehydrazide]
viability at 100 µM [3]: 84%

IC50 [3]: 3.02 µM
Molecule: COc1cccc2c1C(=O)c1c(O)c3c(c(O)c1C2=O)C[C@@](O)(C(=O)CO)C[C@@H]3O[C@H]1C[C@H](N)[C@H](O)[C@H](C)O1 [DOX, doxorubicin, reference compound]
IC50 ([2]; Homo sapiens): 3.82 µM
